Assay results: PubChem BioAssay (NCI)
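Cultured in 96-well plates, cells were exposed to test compound for 48 hours across five concentrations. Here, GI50 denotes the concentration required for 50% inhibition of growth. TGI is the concentration that stops growth completely.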

Columns and labels:
Assay in all cases: growth of human tumour cells (NCI), 48 h
SK-OV-3 ovarian = system: SK-OV-3 ovarian
HCT-116 colon = system: HCT-116 colon
SK-MEL-5 melanoma = system: SK-MEL-5 melanoma
SK-MEL-28 melanoma = system: SK-MEL-28 melanoma
IGROV1 ovarian = system: IGROV1 ovarian
786-0 renal = system: 786-0 renal
HCT-15 colon = system: HCT-15 colon
SR leukemia = system: SR leukemia
EKVX NSCLC = system: EKVX NSCLC
HL-60(TB) leukemia = system: HL-60(TB) leukemia

| Compound | TGI (SK-OV-3 ovarian) [µM] | TGI (HCT-116 colon) [µM] | TGI (SK-MEL-5 melanoma) [µM] | TGI (SK-MEL-28 melanoma) [µM] | TGI (IGROV1 ovarian) [µM] | TGI (786-0 renal) [µM] | TGI (HCT-15 colon) [µM] | TGI (SR leukemia) [µM] | TGI (EKVX NSCLC) [µM] | TGI (HL-60(TB) leukemia) [µM] | GI50 (SK-OV-3 ovarian) [µM] | GI50 (HCT-116 colon) [µM] | GI50 (SK-MEL-5 melanoma) [µM] | GI50 (SK-MEL-28 melanoma) [µM] | GI50 (EKVX NSCLC) [µM] | GI50 (HL-60(TB) leukemia) [µM] | GI50 (IGROV1 ovarian) [µM] | GI50 (786-0 renal) [µM] | GI50 (HCT-15 colon) [µM] | GI50 (SR leukemia) [µM] |
| --- | --- | --- | --- | --- | --- | --- | --- | --- | --- | --- | --- | --- | --- | --- | --- | --- | --- | --- | --- | --- |
| C=CC1=C(C)C2=NC1=CC1=NC(=CC3=C(C)C4=C(O)[C@H](C(=O)OC)C(=C5NC(=C2)[C@@H](C)[C@@H]5CCC(=O)O)C4=N3)C(CC)=C1C | > 40 | > 59 | 3.75 | 3.54 | > 23.8 | > 28.2 | 9.72 | 1.5 | – | – | – | – | – | – | – | – | – | – | – | – |
| Cc1c2ccncc2c(C)c2c1[nH]c1ccc(O)c(OCC(F)(F)F)c12 | 19.9 | 9.11 | 7.5 | 22.4 | 18.1 | 5.78 | – | – | 20.5 | 11.6 | – | – | – | – | – | – | – | – | – | – |
| C=C1C(=O)C23C(O)C1CC[C@H]2C12CCCC(C)(COC(C)=O)[C@H]1[C@H](O)[C@]3(O)OC2 (stereo partly drawn) | 13.3 | 2.3 | 3.26 | 2.97 | 4.05 | 2.24 | 2.37 | – | 9.67 | 1.04 | – | – | – | – | – | – | – | – | – | – |
| O=C(/C=C/c1cccc(O)c1)c1cccc(-n2cc(-c3ccc4ccccc4c3)[nH]c2=O)c1 | 6.73 | 1.45 | 2.41 | 12.4 | 2.79 | 3.13 | 4.8 | – | 13.9 | 3.21 | 2.15 | 0.407 | 1.16 | 3.79 | 2.64 | 1.01 | 1.33 | 1.74 | 1.56 | – |
| Cn1c(=O)nc2n(-c3ccc(Cl)c(C(F)(F)F)c3)c3ccccc3nc-2c1=O | > 100 | > 79.4 | 26.9 | > 100 | > 100 | > 100 | > 100 | – | > 83.9 | 46.2 | – | – | – | – | – | – | – | – | – | – |
| COC(=O)C1C(=O)N(CCc2c[nH]c3ccccc23)C[C@@H]2CCC(=O)C[C@H]12 (stereo partly drawn) | > 100 | > 100 | > 100 | > 100 | > 100 | > 100 | > 100 | – | > 100 | > 100 | – | – | – | – | – | – | – | – | – | – |
| C[C@]12C/C(=C/O)C(=O)C(O)=C1CC[C@@H]1C2CC[C@@]2(C)C1CC[C@@H]2O (stereo partly drawn) | 65.5 | – | 42.9 | 48.2 | 46 | 87.5 | 61.5 | – | 72.8 | 41.8 | – | – | – | – | – | – | – | – | – | – |
| O=c1c2ccccc2sc2ccccc12 | > 100 | > 100 | > 100 | > 100 | > 100 | > 100 | > 100 | – | > 100 | > 100 | – | – | – | – | – | – | – | – | – | – |
| Cc1cccc(N(CC(=O)O)S(=O)(=O)c2ccccc2)c1 | > 100 | – | > 100 | > 100 | > 100 | > 100 | > 100 | – | > 100 | > 100 | – | – | – | – | – | – | – | – | – | – |
| C=CCNC(=O)N(CCC)CCCC(NC(C)=O)C(=O)NCc1ccccc1 (stereo not drawn) | > 100 | – | > 100 | > 100 | > 100 | > 100 | > 100 | – | > 100 | > 100 | – | – | – | – | – | – | – | – | – | – |
| Cc1nc(-c2cccnc2)sc1C(=O)/C=C/c1cccc([N+](=O)[O-])c1 | > 100 | – | > 100 | > 100 | > 100 | > 100 | > 100 | – | > 100 | > 100 | – | – | – | – | – | – | – | – | – | – |
| CC(=O)n1c(=O)c2cc3c(=O)n(-c4cccc(C#N)c4)c(=O)c3cc2c1=O | > 100 | > 100 | > 100 | > 100 | > 100 | > 100 | > 100 | – | > 100 | > 100 | – | – | – | – | – | – | – | – | – | – |
| O=[N+]([O-])c1ccc(-c2cc3c(Nc4ccc(Cl)c(C(F)(F)F)c4)ncnc3s2)cc1 | > 26.3 | > 100 | 2.58 | > 100 | > 100 | > 20.6 | > 100 | – | > 100 | 3.62 | 2.77 | 1.51 | 1.13 | 2.24 | 2.61 | 0.906 | 1.62 | 1.1 | 1.01 | – |
| O=[N+]([O-])c1cc(Cl)ccc1Sc1ccccc1 | > 100 | > 100 | > 100 | > 100 | > 100 | > 100 | > 100 | – | > 100 | > 100 | – | – | – | – | – | – | – | – | – | – |
| CC1=NN(C(=O)c2ccncc2)C(=O)C1N=Nc1ccc(F)cc1 (stereo not drawn) | > 100 | > 100 | > 100 | > 100 | > 100 | > 100 | > 100 | – | > 100 | > 100 | – | – | – | – | – | – | – | – | – | – |
| CCCCCCCCCCCCCC[n+]1cccc(C(N)=O)c1 | 8.13 | 3.97 | – | 5.52 | 0.681 | 2.82 | 58.3 | 3.94 | 6.08 | – | 1.9 | 1.61 | – | 2.01 | 1.97 | – | 0.197 | 1.32 | 13.5 | 1.45 |
| N.N.N.N.N.O=S(=O)([O-])S(=O)(=O)[O-].[Co+3] | > 100 | > 100 | > 100 | > 100 | > 100 | > 100 | > 100 | – | > 100 | > 100 | > 100 | > 100 | > 100 | > 100 | > 100 | > 100 | > 100 | > 100 | > 100 | – |
| CC(C)(C)NCC(COc1ccc([N+](=O)[O-])cc1)OP(c1ccccc1)c1ccccc1 (stereo not drawn) | > 100 | > 100 | 37.3 | > 100 | > 100 | > 100 | > 100 | – | > 100 | 47.3 | – | – | – | – | – | – | – | – | – | – |
| c1ccc(-c2nc(N3CCCNCC3)c3nc(-c4ccccc4)oc3n2)cc1 | 3.19 | 3.35 | 3.18 | 3.15 | 3.13 | 3.45 | 2.89 | – | 3.17 | 3.55 | 1.74 | 1.65 | 1.77 | 1.71 | 1.65 | 1.83 | 1.59 | 1.73 | 1.47 | – |
| O=C1/C(=C/c2ccc([N+](=O)[O-])cc2)COc2ccc(O)cc21 | > 100 | 3.43 | 53.6 | 22.9 | 4.99 | 11.7 | 7.61 | – | > 100 | 7.92 | > 100 | 1.67 | 12.1 | 5.11 | 42.7 | 2.48 | 2 | 3.05 | 2.24 | – |
| O=C1c2cccc3cccc(c23)C(=O)N1O | > 100 | > 100 | > 100 | > 100 | > 100 | > 100 | > 100 | – | > 100 | > 100 | – | – | – | – | – | – | – | – | – | – |
| Cc1ccc(NC(=O)/C(Cc2nc3ccc([N+](=O)[O-])cc3[nH]c2=O)=N\NC(=O)C[n+]2ccccc2)c(C)c1 | 56.5 | > 100 | 55.4 | > 100 | > 100 | 79.9 | > 100 | – | > 100 | 81.8 | – | – | – | – | – | – | – | – | – | – |
| CC(=O)[CH-]C(=O)c1ccccc1.CC(=O)[CH-]C(=O)c1ccccc1.CC1(C)OCC(C2OC3OC(C)(C)OC3C2[O-])O1.CC[O-].[Ti+4] (stereo not drawn) | 61.1 | 28.1 | 23.9 | 25.1 | 33.5 | 36 | 68 | – | 23.3 | – | 21.9 | 14.9 | 10.8 | 11.6 | 6.56 | – | 17.9 | 18.4 | 25.9 | – |
| O=C1c2ccccc2-c2c1c1ccccc1c(=O)n2CCNCCn1c2c(c3ccccc3c1=O)C(=O)c1ccccc1-2 | – | > 25 | > 25 | – | > 25 | > 25 | > 25 | – | > 25 | – | – | > 25 | > 25 | – | > 25 | – | > 25 | 12.2 | > 25 | – |
| CCOC(=O)N1CCN(CCCCCOc2ccccc2C2CCCCC2)CC1 | 19.1 | 9.65 | 3.53 | 16.3 | 23.1 | 3.78 | 12.9 | – | 16.5 | 3.5 | 6.08 | 2.16 | 1.52 | 2.87 | 3.23 | 1.39 | 10.4 | 1.86 | 3.09 | – |
| Cc1cc(C)n(C2=NS(=O)(=O)c3ccccc3N2C)n1 | > 100 | > 100 | > 100 | > 100 | > 100 | > 100 | > 100 | – | > 100 | > 100 | – | – | – | – | – | – | – | – | – | – |
| O=C(CC1(O)C(=O)Nc2c(Cl)ccc(Cl)c21)c1ccc(Cl)cc1Cl (stereo not drawn) | 46.6 | 33.1 | – | 38.8 | 35.4 | 27.8 | > 100 | – | 44 | – | – | – | – | – | – | – | – | – | – | – |
| O=C1[C@H]2ON(c3ccccc3)C(c3ccco3)[C@H]2C(=O)N1c1ccc(Cc2ccc(N3C(=O)[C@@H]4ON(c5ccccc5)C(c5ccco5)[C@@H]4C3=O)cc2)cc1 (stereo partly drawn) | > 100 | – | > 100 | > 100 | > 100 | > 100 | > 100 | – | – | > 100 | – | – | – | – | – | – | – | – | – | – |
